# Assay results as given in patent US20150164855A1, “KETONE BODIES AND KETONE BODY ESTERS FOR MAINTAINING OR IMPROVING MUSCLE POWER OUTPUT” (priority 2012, published 2015).
# Experiments:
# Type in all cases: in vivo
# [1] = Blood (R)-3-hydroxybutyrate concentration in rats following administration of ketones; conditions: for Peak Blood (R)-3-hydroxybutyrate: rats fed sour cream mix containing 2 g ketone in 10 ml water, blood before feeding and after 1, 3 and 6 hours
# Method: Experiments were carried out to determine the concentration of blood (R)-3-hydroxybutyrate in rats following administration of various ketones. The ketones tested are set out in Table 4 below. The ketones were tasted in the same manner as Ketones 1 to 8 above.
# Rats were each fed with a sour cream mix containing 2 g of a ketone as set out in […] in 10 ml water. Samples of blood from each rat were taken immediately prior to feeding, after 1 hour, 3 hours and 6 hours to determine the blood concentration of (R)-3-hydroxybutyrate. Two controls (Control A and Control B) were also tested by feeding with the same mix without the ketone added. The rats were humanely killed and dissected for visual inspection to determine whether pyloric constriction or other visible changes had occurred.
# Blood was extracted and 0.1 ml of whole blood was added to 0.4 ml 3.6% perchloric acid subjected to vortex and then allowed to rest in ice for 30 minutes and then spun. 350 ul of acidic supernatant were then transferred to a new tube and 5 ul phenol red (0.05%), 20 ul 1 M Imidazole pH 7 and 3 M KHCO3 was added to neutralize the solution which was allowed to stand in ice for 30 minutes and then spun. A sample of the neutralized blood extract was then assayed for (R)-3-hydroxybutyrate.
# [2] = Uptake of oligomeric ketones into the blood (Example 2)
# Method: Procedures were carried out to determine the uptake of oligomeric ketones into the blood.
# [3] = Single oral dose/response of blood (R)-3-hydroxybutyrate (Example 5); conditions: 192, 291, 395 and 573 mg/kg single dose
# Method: (R)-3-hydroxybutyrate-R-1,3-butanediol monoester was administered in a single dose based on a fixed amount per kg of body weight of the subject to a number of subjects. The blood (R)-3-hydroxybutyrate concentration was determined over a period of time to determine the dose/response relationship between the oral single dose and the blood concentration of (R)-3-hydroxybutyrate. The procedure was repeated with different quantities of (R)-3-hydroxybutyrate-R-1,3-butanediol monoester to provide data on the dose/response relationship for (R)-3-hydroxybutyrate-R-1,3-butanediol monoester when administered at 192 mg/kg, 291 mg/kg, 395 mg/kg and 573 mg/kg.
# [4] = Visual inspection of dissected rats for pyloric constriction or other visible changes; conditions: rats fed 2 g ketone, killed and dissected for visual inspection
# Method: Rats were each fed with a sour cream mix containing 2 g of a ketone as set out in Table 3 in 10 ml water. […] Two controls (Control A and Control B) were also tested by feeding with the same mix without the ketone added. The rats were humanely killed and dissected for visual inspection to determine whether pyloric constriction or other visible changes had occurred.
Molecule,Peak Blood (R)-3-hydroxybutyrate [1],"level of uptake to the blood relative to the linear/other oligomers tested (Ketones 9, 11 and 12) ([1]; rats, 2 g ketone)",blood level of (R)-3-hydroxybutyrate (peak) [2],blood (R)-3-hydroxybutyrate concentration after single oral dose [3],Symptoms [4],"level of uptake to the blood relative to the triolide diester oligomer (Ketone 10) ([1]; rats, 2 g ketone)"
"CC(O)CC(=O)OC(C)CC(=O)OC(C)CC(=O)OCC[C@@H](C)OC(=O)CC(C)OC(=O)CC(C)OC(=O)CC(C)O (stereo partly drawn) [Ketone 10, (R)-1,3-butanediol ditriolide ester]",about 1.5 mM,around 10 times,about 1.5 mM,–,–,–
"(R)-3-hydroxybutyrate-(R)-1,3-butanediol [Ketone 8]",6 mM,–,6000 µM,levels not previously reported with other ketones,"No pyloric constriction, no gas",around 4 times
